Reference: ChEMBL document CHEMBL1201862, “PubChem BioAssay data set” (2004)
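Interpolation was linear, between the two tested concentrations surrounding the appropriate level; five concentrations were tested over 48 hours in 96-well plates. Here, GI50 denotes the concentration required for 50% inhibition of growth.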 Calls of active or inactive are those of the source. Rule as the data show it: active = GI50 up to about 1.1 µM and inactive = higher.

Tests used:
Test in all cases: NCI tumour cell line growth inhibition, 48 h
NCI-H226 = test system: NCI-H226
UO-31 = test system: UO-31
KM12 = test system: KM12
HCT-116 = test system: HCT-116
A498 = test system: A498
SK-MEL-2 = test system: SK-MEL-2
OVCAR-5 = test system: OVCAR-5
OVCAR-3 = test system: OVCAR-3
COLO 205 = test system: COLO 205
T47D = test system: T47D
A549 = test system: A549
SW-620 = test system: SW-620
K562 = test system: K562
RPMI-8226 = test system: RPMI-8226
SF-539 = test system: SF-539
SNB-75 = test system: SNB-75
LOX IMVI = test system: LOX IMVI
PC-3 = test system: PC-3
OVCAR-4 = test system: OVCAR-4

| SMILES | GI50 (NCI-H226) | GI50 (UO-31) | GI50 (KM12) | GI50 (HCT-116) | GI50 (A498) | GI50 (SK-MEL-2) | GI50 (OVCAR-5) | GI50 (OVCAR-3) | GI50 (COLO 205) | GI50 (T47D) | GI50 (A549) | GI50 (SW-620) | GI50 (K562) | GI50 (RPMI-8226) | GI50 (SF-539) | GI50 (SNB-75) | GI50 (LOX IMVI) | GI50 (PC-3) | GI50 (OVCAR-4) |
| --- | --- | --- | --- | --- | --- | --- | --- | --- | --- | --- | --- | --- | --- | --- | --- | --- | --- | --- | --- |
| Cc1ccc2[nH]c3[nH]c(=S)[nH]c(=O)c3c2c1 | > 100 µM (inactive) | > 100 µM (inactive) | > 100 µM (inactive) | > 100 µM (inactive) | > 100 µM (inactive) | > 100 µM (inactive) | > 100 µM (inactive) | 72.9 µM (inactive) | > 100 µM (inactive) | > 100 µM (inactive) | > 100 µM (inactive) | > 100 µM (inactive) | 96.4 µM (inactive) | 72.8 µM (inactive) | > 100 µM (inactive) | 40 µM (inactive) | > 100 µM (inactive) |  |  |
| CCN1C(=S)n2cccc2C1CC(=O)c1ccc(Cl)cc1 (configuration not stated) |  | 42.9 µM (inactive) | > 100 µM (inactive) | 33 µM (inactive) | 43.5 µM (inactive) | 58.2 µM (inactive) | 87.9 µM (inactive) | 74 µM (inactive) |  | 56.6 µM (inactive) | 15.3 µM (inactive) | 42.9 µM (inactive) | 53.7 µM (inactive) | 15.7 µM (inactive) |  | 54.7 µM (inactive) | 58.9 µM (inactive) | 40.2 µM (inactive) | 93.3 µM (inactive) |
| CC(C)(C)OC(=O)N1CCCC1C(=O)NCCNc1ccc(NCCNC(=O)C2CCCN2C(=O)OC(C)(C)C)c2c1C(=O)c1ccccc1C2=O (configuration not stated) | 18.5 µM (inactive) |  | 12.2 µM (inactive) | 13.2 µM (inactive) |  | 20.7 µM (inactive) | 16.7 µM (inactive) | 14.1 µM (inactive) | 14.4 µM (inactive) |  | 15.8 µM (inactive) | 13.8 µM (inactive) | < 0.01 µM (active) | < 0.01 µM (active) | 16.1 µM (inactive) | 20.4 µM (inactive) | 12.4 µM (inactive) | 11.1 µM (inactive) | 15 µM (inactive) |
| COc1cc(C2SCC(=O)N2c2ccccn2)cc(OC)c1OC (configuration not stated) | > 100 µM (inactive) | > 100 µM (inactive) | 62.1 µM (inactive) | 79.6 µM (inactive) | > 100 µM (inactive) | > 100 µM (inactive) | > 100 µM (inactive) | > 100 µM (inactive) | > 100 µM (inactive) |  | > 100 µM (inactive) | 76 µM (inactive) | 48.4 µM (inactive) | 91 µM (inactive) | 65 µM (inactive) |  | > 100 µM (inactive) | > 100 µM (inactive) | > 100 µM (inactive) |
| [N-]=[N+]=Nc1c(Cl)c(=O)n(-c2ccccc2)c2ccccc12 |  | 23.9 µM (inactive) | 39.5 µM (inactive) | 17.8 µM (inactive) |  | 20.7 µM (inactive) | 24.3 µM (inactive) | 17.3 µM (inactive) | 25.8 µM (inactive) | 11.8 µM (inactive) | 28.4 µM (inactive) | 14.6 µM (inactive) | 14.8 µM (inactive) | 34 µM (inactive) | 22.3 µM (inactive) | 18.5 µM (inactive) | 14.9 µM (inactive) | 18.7 µM (inactive) | 17.4 µM (inactive) |
| COc1ccc(NC(=S)N/N=C/c2c(C)n(C)n(-c3ccccc3)c2=O)cc1 | 35.6 µM (inactive) | 26.4 µM (inactive) | > 100 µM (inactive) | 77.6 µM (inactive) | 17.2 µM (inactive) | 32.1 µM (inactive) |  |  | > 100 µM (inactive) |  |  | > 100 µM (inactive) | 26.2 µM (inactive) | > 100 µM (inactive) | 21.3 µM (inactive) | 28 µM (inactive) | > 100 µM (inactive) | 69.8 µM (inactive) | 19.1 µM (inactive) |
| O=C1C=CC(=C(c2ccccc2)c2ccc(O)cc2)C=C1 | 19.5 µM (inactive) | 14.8 µM (inactive) | 19.4 µM (inactive) | 50.5 µM (inactive) |  | 15.8 µM (inactive) | 20.3 µM (inactive) | 16.2 µM (inactive) | 14.9 µM (inactive) |  | 17.4 µM (inactive) | 18.1 µM (inactive) | 15.1 µM (inactive) | 9.12 µM (inactive) | 13.2 µM (inactive) | 16.9 µM (inactive) | 4.51 µM (inactive) | 22.1 µM (inactive) | 14.3 µM (inactive) |
| CCCSc1ccc2[nH]c(/N=C/c3ccco3)cc2c1 |  | 41.9 µM (inactive) | 49.4 µM (inactive) | 35.4 µM (inactive) | 34.4 µM (inactive) | 23.7 µM (inactive) | 6.08 µM (inactive) | 29.8 µM (inactive) | 22 µM (inactive) | 38.1 µM (inactive) | 77.6 µM (inactive) | 40.2 µM (inactive) |  | 0.184 µM (active) | 12.4 µM (inactive) | > 100 µM (inactive) | 37.7 µM (inactive) | 43.7 µM (inactive) | 39.4 µM (inactive) |
| COc1cccc(N2C(=O)C3c4[nH]c5ccc(C)cc5c4C4CCC(C)CC4C3C2=O)c1 (configuration not stated) | > 100 µM (inactive) | > 100 µM (inactive) |  | > 100 µM (inactive) | 49 µM (inactive) | 24.5 µM (inactive) | > 100 µM (inactive) | > 100 µM (inactive) | > 100 µM (inactive) |  | > 100 µM (inactive) | > 100 µM (inactive) | 30.3 µM (inactive) | > 100 µM (inactive) | 57.5 µM (inactive) |  | > 100 µM (inactive) | > 100 µM (inactive) |  |
